The numbers were not newly measured in patent US20080044439A1, “Compositions and Methods for Preventing and Treating Skin and Hair Conditions” (priority 2004, published 2008), which cites them from elsewhere.

For the data set, the system named is albino guinea pigs.

As to `CC(C)Cn1cnc2c(N)nc3ccccc3c21` [imiquimod], the “fading the tattoo, macroscopically and histologically” value (5 percent cream applied every 6 hours for seven days, evaluated at seven and 28 days after tattoo placement, compared with petrolatum, tretinoin 0.025 percent, tretinoin alternated with imiquimod) is reported as “most effective regimen for fading the tattoo”. In addition, where the note is “guinea pig, in vivo”, the “biopsy evaluation of the treated site” value is “epidermal and dermal necrosis with separation, severe inflammation and fibrosis, and disruption of the skin appendages”.
